Laboratory results: US6737383B1, “Herbicidal oxadiazolidines” (priority 1999, dated 2004)

Columns and labels:
blackgrass = assay: Test B pre/postemergence blackgrass; assay type: in vivo, Alopecurus myosuroides
Procedure, shortened: (§1)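 Test chemicals in a non-phytotoxic solvent mixture with surfactant were sprayed preemergence onto planted seeds and postemergence onto plants 2 to 18 cm tall (1- to 4-leaf stage). After twelve to sixteen days in a greenhouse, injury was visually rated against untreated controls from 0 (no effect) to 10 (complete control).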

giant foxtail = assay: Test B pre/postemergence giant foxtail; assay type: in vivo, Setaria faberii
Procedure, shortened: as §1

sugar beet = assay: Test B pre/postemergence sugar beet; assay type: in vivo, Beta vulgaris
Procedure, shortened: as §1

crabgrass = assay: Test B pre/postemergence crabgrass; assay type: in vivo, Digitaria sanguinalis
Procedure, shortened: as §1

purple nutsedge = assay: Test B pre/postemergence purple nutsedge; assay type: in vivo, Cyperus rotundus
Procedure, shortened: as §1

smallflower flatsedge = assay: Test B flood test smallflower flatsedge; assay type: in vivo, Cyperus difformis
Procedure, shortened: (§2)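 Flood test on plants grown to the 2-leaf stage; treated plants kept in greenhouse twelve to sixteen days, then visually rated against controls on a 0 (no effect) to 10 (complete control) scale.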

pigweed = assay: Test B pre/postemergence pigweed; assay type: in vivo, Amaranthus retroflexus
Procedure, shortened: as §1

corn = assay: Test B pre/postemergence corn; assay type: in vivo, Zea mays
Procedure, shortened: as §1

rape = assay: Test B pre/postemergence rape; assay type: in vivo, Brassica napus
Procedure, shortened: as §1

cocklebur = assay: Test B pre/postemergence cocklebur; assay type: in vivo, Xanthium strumarium
Procedure, shortened: as §1

soybean = assay: Test B pre/postemergence soybean; assay type: in vivo, Glycine max
Procedure, shortened: as §1

bamyardgrass = assay: Test B flood test barnyardgrass; assay type: in vivo, Echinochloa crus-galli
Procedure, shortened: as §2

morningglory = assay: Test B pre/postemergence morningglory; assay type: in vivo, Ipomoea hederacea
Procedure, shortened: as §1

surinam grass = assay: Test B pre/postemergence surinam grass; assay type: in vivo, Brachiaria decumbens
Procedure, shortened: as §1

velvetleaf = assay: Test B pre/postemergence velvetleaf; assay type: in vivo, Abutilon theophrasti
Procedure, shortened: as §1

wild oat = assay: Test B pre/postemergence wild oat; assay type: in vivo, Avena fatua
Procedure, shortened: as §1

[1] = Preemergence, Rate 62 g/ha, scale of 0 to 10 where 0 is no effect and 10 is complete control
[2] = Preemergence, Rate 250 g/ha, scale of 0 to 10 where 0 is no effect and 10 is complete control
[3] = Preemergence, Rate 500 g/ha, scale of 0 to 10 where 0 is no effect and 10 is complete control
[4] = Rate 62 g/ha, Postemergence, scale 0 to 10 (0 no effect, 10 complete control)
[5] = Rate 125 g/ha, Postemergence, scale of 0 to 10 where 0 is no effect and 10 is complete control
[6] = Rate 125 g/ha, Preemergence, scale of 0 to 10 where 0 is no effect and 10 is complete control
[7] = Rate 250 g/ha, Postemergence, scale of 0 to 10 where 0 is no effect and 10 is complete control
[8] = Rate 500 g/ha, Postemergence, scale 0 to 10, 0 no effect, 10 complete control
[9] = Rate 62 g/ha, headed Pre-emergence (flood test species), scale 0 to 10 (0 no effect, 10 complete control)
[10] = Rate 125 g/ha, Pre-emergence, flood test species, scale 0 to 10 where 0 is no effect and 10 is complete control
[11] = Rate 250 g/ha, Pre-emergence, flood-test species, scale 0 to 10, 0 is no effect, 10 is complete control
[12] = Rate 500 g/ha, Pre-emergence, flood test species, scale 0 to 10 (0 no effect, 10 complete control)

COCn1c(=O)on(C(=O)N(c2ccc(F)cc2)C(C)C)c1=O [Compound 293]
Blackgrass plant response rating (blackgrass; [1]): 7
Blackgrass plant response rating (blackgrass; [2]): 9
Plant response rating, Blackgrass (blackgrass; [3]): 9
Blackgrass plant response rating (blackgrass; [4]): 5
Blackgrass plant response rating (blackgrass; [5]): 9
Blackgrass plant response rating (blackgrass; [6]): 7
Plant response rating, Blackgrass (blackgrass; [7]): 9
Blackgrass plant response rating (blackgrass; [8]): 9
Giant foxtail plant response rating (giant foxtail; [1]): 9
Giant foxtail plant response rating (giant foxtail; [2]): 9
Plant response rating, Giant foxtail (giant foxtail; [3]): 10
Giant foxtail plant response rating (giant foxtail; [4]): 5
Giant foxtail plant response rating (giant foxtail; [5]): 8
Giant foxtail plant response rating (giant foxtail; [6]): 9
Plant response rating, Giant foxtail (giant foxtail; [7]): 8
Sugarbeets plant response rating (sugar beet; [1]): 0
Sugarbeets plant response rating (sugar beet; [2]): 4
Plant response rating, Sugarbeets (sugar beet; [3]): 8
Sugarbeets plant response rating (sugar beet; [4]): 0
Sugarbeets plant response rating (sugar beet; [5]): 0
Sugarbeets plant response rating (sugar beet; [6]): 4
Plant response rating, Sugarbeets (sugar beet; [7]): 3
Crabgrass plant response rating (crabgrass; [1]): 1
Crabgrass plant response rating (crabgrass; [2]): 8
Plant response rating, Crabgrass (crabgrass; [3]): 8
Crabgrass plant response rating (crabgrass; [4]): 6
Crabgrass plant response rating (crabgrass; [5]): 8
Crabgrass plant response rating (crabgrass; [6]): 3
Plant response rating, Crabgrass (crabgrass; [7]): 9
Nutsedge plant response rating (purple nutsedge; [1]): 0
Nutsedge plant response rating (purple nutsedge; [2]): 7
Nutsedge plant response rating (purple nutsedge; [4]): 0
Nutsedge plant response rating (purple nutsedge; [5]): 3
Nutsedge plant response rating (purple nutsedge; [6]): 0
Plant response rating, Nutsedge (purple nutsedge; [7]): 8
S. Flatsedge plant response rating (smallflower flatsedge; [9]): 0
S. Flatsedge plant response rating (smallflower flatsedge; [10]): 0
S. Flatsedge plant response rating (smallflower flatsedge; [11]): 0
S. Flatsedge plant response rating (smallflower flatsedge; [12]): 0
Redroot pigweed plant response rating (pigweed; [1]): 6
Redroot pigweed plant response rating (pigweed; [2]): 10
Plant response rating, Redroot pigweed (pigweed; [3]): 10
Redroot pigweed plant response rating (pigweed; [4]): 0
Redroot pigweed plant response rating (pigweed; [5]): 2
Redroot pigweed plant response rating (pigweed; [6]): 8
Plant response rating, Redroot pigweed (pigweed; [7]): 2
Corn plant response rating (corn; [1]): 0
Corn plant response rating (corn; [2]): 9
Corn plant response rating (corn; [4]): 0
Corn plant response rating (corn; [5]): 0
Corn plant response rating (corn; [6]): 0
Plant response rating, Corn (corn; [7]): 0
Corn plant response rating (corn; [8]): 3
Rape plant response rating (rape; [1]): 0
Rape plant response rating (rape; [2]): 8
Plant response rating, Rape (rape; [3]): 10
Rape plant response rating (rape; [4]): 0
Rape plant response rating (rape; [5]): 0
Rape plant response rating (rape; [6]): 6
Plant response rating, Rape (rape; [7]): 0
Cocklebur plant response rating (cocklebur; [1]): 0
Cocklebur plant response rating (cocklebur; [2]): 0
Plant response rating, Cocklebur (cocklebur; [3]): 0
Cocklebur plant response rating (cocklebur; [4]): 0
Cocklebur plant response rating (cocklebur; [5]): 0
Cocklebur plant response rating (cocklebur; [6]): 0
Plant response rating, Cocklebur (cocklebur; [7]): 0
Cocklebur plant response rating (cocklebur; [8]): 0
Soybean plant response rating (soybean; [1]): 0
Soybean plant response rating (soybean; [2]): 2
Plant response rating, Soybean (soybean; [3]): 2
Soybean plant response rating (soybean; [4]): 1
Soybean plant response rating (soybean; [5]): 2
Soybean plant response rating (soybean; [6]): 0
Plant response rating, Soybean (soybean; [7]): 2
Barnyardgrass plant response rating (bamyardgrass; [9]): 0
Barnyardgrass plant response rating (bamyardgrass; [10]): 0
Barnyardgrass plant response rating (bamyardgrass; [11]): 0
Barnyardgrass plant response rating (bamyardgrass; [12]): 5
Morningglory plant response rating (morningglory; [1]): 0
Morningglory plant response rating (morningglory; [2]): 0
Plant response rating, Morningglory (morningglory; [3]): 4
Morningglory plant response rating (morningglory; [4]): 1
Morningglory plant response rating (morningglory; [5]): 5
Morningglory plant response rating (morningglory; [6]): 0
Plant response rating, Morningglory (morningglory; [7]): 5
B. signalgrass plant response rating (surinam grass; [1]): 2
B. signalgrass plant response rating (surinam grass; [2]): 7
Plant response rating, B. signalgrass (surinam grass; [3]): 9
B. signalgrass plant response rating (surinam grass; [4]): 0
B. signalgrass plant response rating (surinam grass; [5]): 0
B. signalgrass plant response rating (surinam grass; [6]): 3
Plant response rating, B. signalgrass (surinam grass; [7]): 7
B. signalgrass plant response rating (surinam grass; [8]): 7
Velvetleaf plant response rating (velvetleaf; [1]): 4
Velvetleaf plant response rating (velvetleaf; [2]): 7
Plant response rating, Velvetleaf (velvetleaf; [3]): 8
Velvetleaf plant response rating (velvetleaf; [4]): 0
Velvetleaf plant response rating (velvetleaf; [5]): 2
Velvetleaf plant response rating (velvetleaf; [6]): 4
Plant response rating, Velvetleaf (velvetleaf; [7]): 2
Wild oats plant response rating (wild oat; [1]): 1
Wild oats plant response rating (wild oat; [2]): 8
Plant response rating, Wild oats (wild oat; [3]): 9
Wild oats plant response rating (wild oat; [4]): 0
Wild oats plant response rating (wild oat; [5]): 0
Plant response rating, Wild oats (wild oat; [7]): 3
